Patent US12642806B2, “Cannabidiol compositions for use in treating heart conditions” (CARDIOL THERAPEUTICS INC., priority 2019, dated 2026)

Experiments:
CB2 receptor [1] = target: T1, CB2 receptor (Homo sapiens, UniProt P34972); conditions: literature (Proc Natl Acad Sci USA 2008); cited from earlier work
CB2 receptor [2] = target: T1, CB2 receptor; conditions: literature (Proc Natl Acad Sci USA 2008); cited from earlier work; remark: listed apart in the source
H9c2 cells [3] = assay: Angiotensin II-mediated cardiomyocyte hypertrophy in H9c2 cells, cell surface area (calcein, confocal microscopy); format: cell-based; conditions: compared with Ang group
Description: A study was conducted to determine the effect of CBD in a model of cardiomyocyte hypertrophy, using H9c2 cells, a cardiomyocyte cell line, in vitro. In this study, H9c2 cells grown in a culture medium were divided into four groups. To one group nothing was added (“Control”). To the second, third and fourth groups, Angiotensin II was added to the culture medium (“Ang”) to give a final concentration of 1.0 μM. The Angiotensin II was added to induce hypertrophy. To the third group, CBD was also added to give a concentration of 0.1 μM (“Ang+CBD 0.1 μM”). Finally, to the fourth group, CBD was also added to give a concentration of 1 μM (“Ang+CBD 1 μM”).
FIG. 1 contains representative confocal microscopy images of the H9c2 cells in each group. The images were obtained using a model with the same parameters and cell staining, to determine the surface area per cell, was achieved using calcein fluorescent dye. […] The results are summarized in FIG. 2, wherein each group comprises at least 3 independent replicates per group.

H9c2 cells [4] = assay: Repeated H9c2 hypertrophy study: BNP and collagen mRNA, mitochondrial ROS (MitoSOX); format: cell-based
Description: The study was repeated using H9c2 cells grown in a culture medium divided into seven groups. To one group nothing was added (“CTRL”). To the second, fourth, fifth, sixth, and seventh groups, Angiotensin II was added to the culture medium (“ANG”) to give a final concentration of 1.0 μM. The Angiotensin II was added to induce hypertrophy. To the third group, CBD was added to give a concentration of 0.1 μM (“CBD 0.1 μM”) as an additional control group. CBD was also added to (a) the fourth group to give a concentration of 0.001 μM (“ANG+CBD 0.001 μM”), (b) the fifth group to give a concentration of 0.01 μM (“ANG+CBD 0.01 μM”), (c) the sixth group to give a concentration of 0.1 μM (“ANG+CBD 0.1 μM”), and, finally, (d) the seventh group to give a concentration of 1 μM (“ANG+CBD 1 μM”).

[5] = system: mouse model of non-ischemic heart failure (HF); assay: Mouse model of non-ischemic heart failure (L-NAME/NaCl + Angiotensin II); format: in vivo, C57BL/6 laboratory mice; conditions: for cardiac fibrosis (Masson's Trichrome) / myocyte area (hypertrophy): 4 weeks, vs Angiotensin group; for mRNA expression of BNP in heart tissue (qPCR): compared with ANG group
Description: Tests were done to evaluate the potential for CBD in treating or preventing heart failure in a mouse model of non-ischemic heart failure (HF) illustrated in FIG. 5.
Three to four week old male C57BL/6 laboratory mice were used in the experiments. The mice were divided into four groups. A first group (the Control) received nothing. The second group of mice (Angiotensin) was provided with water containing 0.1 mg/ml of N(gamma)-nitro-L-arginine methyl ester (L-NAME) and 1% sodium chloride (NaCl) ad libitum for one week. Following this, 0.7 mg/kg/week of Angiotensin II was administered subcutaneously for 4 weeks using osmotic pumps. The third group and fourth group were subjected to the same protocol as the second group, however, the third group (ANG+CBD 1 mg/kg) and fourth group (ANG+CBD 10 mg/kg) also received synthetic CBD subcutaneously in an amount of 1 mg/kg and 10 mg/kg, respectively, once every 3 days during the same four week period. The CBD compositions used in this experiment consisted of CBD dissolved in PEG400.
After four weeks of treatment, cardiac tissue was evaluated for fibrosis and myocyte hypertrophy and changes in remodeling and inflammation biomarkers.

human lymphocytes = assay: CD69 expression by ionomycin/PMA-activated human lymphocytes (flow cytometry); format: cell-based; conditions: CBD 5 μg/mL or greater, added 15 minutes before 4 hours stimulation with ionomycin 1 μg/ml and PMA 50 ng/ml
Description: (§1) A further study was performed to determine the effect of CBD on the expression of CD69 (a marker of leukocyte activation) by human lymphocytes and monocytes that had been activated by ionomycin (1 μg/mL) and phorbol myristate acetate (PMA, 50 ng/mL) in vitro.
(§2) Mononuclear cells from a healthy human donor were isolated using a gradient method with Ficoll-Pacque™ Healthcare. Cells were washed with RPMI media with 10% FCS and 1% Penn/Strept and then placed in 12 well trays at 1×10^6 cells/mL and stimulated for 4 hours with Ionomycin 1 μg/ml and 50 ng/ml PMA. CBD was added 15 minutes before using DMSO as a vehicle. After the stimulation, cells were washed again and resuspended in 150 μL staining buffer (PBS+1% BSA). An optimized protocol for surface marker staining was used. CD69 was added to the cells, which were then incubated for 15 minutes in the dark at room temperature. After this, cells were washed twice with PBS+1% BSA and resuspended in 150 μL buffer. Cells were kept at 4 degrees prior to being analyzed in a FACSCanto™ II cytometer. Cell populations were determined by FSC/SSC. The number of events were at least 2000 events per gate. […] The data was analyzed with FlowJo X. Doublets were discriminated with an exclusion gate of FSC-A/FSC-W. Gating for lymphocytes and monocytes was determined by FSC-A/SSC-A. The frequency and expression of CD69-FITC was analyzed in its FITC channel.

human monocytes = assay: CD69 expression by ionomycin/PMA-activated human monocytes (flow cytometry); format: cell-based; conditions: CBD 5 μg/mL or greater, added 15 minutes before 4 hours stimulation with ionomycin 1 μg/ml and PMA 50 ng/ml
Description: as §1, §2

[6] = taken orally; background statement; cited from earlier work
[7] = ANG+CBD 1 μM compared to ANG group
[8] = Angiotensin II 1.0 μM + CBD 0.001, 0.01, 0.1, 1 μM
[9] = CBD 1 mg/kg body weight subcutaneously
[10] = CBD 1 mg/kg subcutaneously once every 3 days
[11] = CBD 10 mg/kg subcutaneously once every 3 days

T1 sequence (P34972 whole entry): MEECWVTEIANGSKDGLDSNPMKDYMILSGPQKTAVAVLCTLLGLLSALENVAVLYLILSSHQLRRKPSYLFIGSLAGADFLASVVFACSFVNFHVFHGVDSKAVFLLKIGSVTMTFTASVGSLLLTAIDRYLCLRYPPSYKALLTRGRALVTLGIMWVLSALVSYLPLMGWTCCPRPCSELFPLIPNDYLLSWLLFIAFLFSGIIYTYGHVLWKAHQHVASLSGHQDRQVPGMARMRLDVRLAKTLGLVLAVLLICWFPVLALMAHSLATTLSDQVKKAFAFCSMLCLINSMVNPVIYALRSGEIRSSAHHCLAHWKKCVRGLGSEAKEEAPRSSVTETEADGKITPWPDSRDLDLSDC

SMILES: C=C1CC/C=C(\C)CC[C@@H]2[C@@H]1CC2(C)C [β-caryophyllene, trans-(1R,9S)-8-Methylene-4,11,11-trimethylbicyclo[7.2.0]undec-4-ene]
- binding to the CB2 receptor (CB2 receptor [1]): selectively binds to the CB2 receptor
- functional activity at CB2 (CB2 receptor [2]): functional CB2 agonist

SMILES: C=C(C)[C@@H]1CCC(C)=C[C@H]1c1c(O)cc(CCCCC)cc1O [CBD, cannabidiol]
- cell surface area of H9c2 cells (H9c2 cells [3]; Angiotensin II 1.0 μM + CBD 0.1 μM): significantly smaller
- cell surface area of H9c2 cells (H9c2 cells [3]; Angiotensin II 1.0 μM + CBD 1 μM): significantly smaller
- mRNA level of expression of collagen (H9c2 cells [4]; ANG+CBD 0.1 μM compared to ANG group): significantly reduced
- mRNA level of expression of BNP (H9c2 cells [4]; [7]): significantly reduced
- mRNA level of expression of collagen (H9c2 cells [4]; [7]): significantly reduced
- mRNA level of expression of BNP (H9c2 cells [4]; [8]): dose-dependent reduction
- mRNA level of expression of collagen (H9c2 cells [4]; [8]): dose-dependent reduction
- Mitochondrial reactive oxygen species (ROS, MitoSOX) (H9c2 cells [4]; Angiotensin II 1.0 μM + CBD at different doses): reduced down to control levels
- mRNA expression of IL10 [5, 9]: significantly increased
- mRNA expression of pro-inflammatory cytokine IL6 [5, 9]: significantly decreased
- cardiac fibrosis (Masson's Trichrome) [5, 10]: effective to reduce
- myocyte area (hypertrophy) [5, 10]: effective to reduce
- mRNA expression of BNP in heart tissue (qPCR) ([5]; CBD 1 mg/kg subcutaneously): significant reduction
- mRNA expression of pro-inflammatory cytokine IL6 ([5]; CBD 10 mg/kg body weight subcutaneously): significantly decreased
- cardiac fibrosis (Masson's Trichrome) [5, 11]: effective to reduce
- myocyte area (hypertrophy) [5, 11]: effective to reduce
- mRNA expression of BNP in heart tissue (qPCR) ([5]; CBD 10 mg/kg subcutaneously): significant reduction
- mRNA expression of pro-inflammatory cytokine IL1β ([5]; CBD subcutaneously, dose not given): trend to be reduced to control levels
- level of expression of CD69 by lymphocytes (human lymphocytes): reduced the level of expression of CD69
- level of expression of CD69 by monocytes (human monocytes): reduced the level of expression of CD69
- overall bioavailability [6]: less than 10%
